For one test, the target named is T1, CBP (Homo sapiens, UniProt Q92793).
T1 construct: host or cells: A549 CBP HiBit cells
Nature of the test: CBP degradation, HiBit technology in A549 CBP HiBit cells (24 h). The format is cell-based. The note with it: 24 hrs post treatment. The method, then: p300 and CBP degradation potency and Dmax were determined using in cell western (ICW) assay technology in H1299 cells or HiBit technology in A549 HiBit cells.
A549 P300 HiBit and A549 CBP HiBit cells were plated in separate 384-well, TC treated, white-opaque, flat-bottomed microplate. Cells were plated at a cell density of 0.2×10^4 cells per well in assay media comprised of F-12K, 10% heat inactivated FBS, and 1% penicillin/streptomycin. Assay microplates containing HiBit cells were placed in a 37° C., 5% CO2, tissue culture incubator and left to equilibrate overnight. The next day cells were treated with serial dilutions of test compound made up of 10 mM stock solutions in DMSO. 384-Well plates containing treated cells were then placed back into a 37° C., 5% CO2, tissue culture incubator. Assay microplates containing A549 P300 HiBit cells were incubated for 2 hrs post treatment before P300 destruction was assessed, while microplates containing A549 CBP HiBit cells were incubated for 24 hrs post treatment before CBP destruction was determined. On the day of each assay time point, microplates were removed from the tissue culture incubator and prepared HiBit Lytic detection buffer (Promega, cat #N3O40) was added to each plate. Plates were covered with aluminum foil and incubated for ten minutes at room temperature on an orbital shaker. After incubation, luminescent signal of each plate was measured using the Envision instrument (Perkin Elmer).
(In general: With HiBiT, luminescence reflects the tagged protein that the partner subunit can reach.)

In the next test the target is T2, p300 (Homo sapiens, UniProt Q09472).
T2 construct: host or cells: A549 P300 HiBit cells
T2 sequence (Q09472 whole entry): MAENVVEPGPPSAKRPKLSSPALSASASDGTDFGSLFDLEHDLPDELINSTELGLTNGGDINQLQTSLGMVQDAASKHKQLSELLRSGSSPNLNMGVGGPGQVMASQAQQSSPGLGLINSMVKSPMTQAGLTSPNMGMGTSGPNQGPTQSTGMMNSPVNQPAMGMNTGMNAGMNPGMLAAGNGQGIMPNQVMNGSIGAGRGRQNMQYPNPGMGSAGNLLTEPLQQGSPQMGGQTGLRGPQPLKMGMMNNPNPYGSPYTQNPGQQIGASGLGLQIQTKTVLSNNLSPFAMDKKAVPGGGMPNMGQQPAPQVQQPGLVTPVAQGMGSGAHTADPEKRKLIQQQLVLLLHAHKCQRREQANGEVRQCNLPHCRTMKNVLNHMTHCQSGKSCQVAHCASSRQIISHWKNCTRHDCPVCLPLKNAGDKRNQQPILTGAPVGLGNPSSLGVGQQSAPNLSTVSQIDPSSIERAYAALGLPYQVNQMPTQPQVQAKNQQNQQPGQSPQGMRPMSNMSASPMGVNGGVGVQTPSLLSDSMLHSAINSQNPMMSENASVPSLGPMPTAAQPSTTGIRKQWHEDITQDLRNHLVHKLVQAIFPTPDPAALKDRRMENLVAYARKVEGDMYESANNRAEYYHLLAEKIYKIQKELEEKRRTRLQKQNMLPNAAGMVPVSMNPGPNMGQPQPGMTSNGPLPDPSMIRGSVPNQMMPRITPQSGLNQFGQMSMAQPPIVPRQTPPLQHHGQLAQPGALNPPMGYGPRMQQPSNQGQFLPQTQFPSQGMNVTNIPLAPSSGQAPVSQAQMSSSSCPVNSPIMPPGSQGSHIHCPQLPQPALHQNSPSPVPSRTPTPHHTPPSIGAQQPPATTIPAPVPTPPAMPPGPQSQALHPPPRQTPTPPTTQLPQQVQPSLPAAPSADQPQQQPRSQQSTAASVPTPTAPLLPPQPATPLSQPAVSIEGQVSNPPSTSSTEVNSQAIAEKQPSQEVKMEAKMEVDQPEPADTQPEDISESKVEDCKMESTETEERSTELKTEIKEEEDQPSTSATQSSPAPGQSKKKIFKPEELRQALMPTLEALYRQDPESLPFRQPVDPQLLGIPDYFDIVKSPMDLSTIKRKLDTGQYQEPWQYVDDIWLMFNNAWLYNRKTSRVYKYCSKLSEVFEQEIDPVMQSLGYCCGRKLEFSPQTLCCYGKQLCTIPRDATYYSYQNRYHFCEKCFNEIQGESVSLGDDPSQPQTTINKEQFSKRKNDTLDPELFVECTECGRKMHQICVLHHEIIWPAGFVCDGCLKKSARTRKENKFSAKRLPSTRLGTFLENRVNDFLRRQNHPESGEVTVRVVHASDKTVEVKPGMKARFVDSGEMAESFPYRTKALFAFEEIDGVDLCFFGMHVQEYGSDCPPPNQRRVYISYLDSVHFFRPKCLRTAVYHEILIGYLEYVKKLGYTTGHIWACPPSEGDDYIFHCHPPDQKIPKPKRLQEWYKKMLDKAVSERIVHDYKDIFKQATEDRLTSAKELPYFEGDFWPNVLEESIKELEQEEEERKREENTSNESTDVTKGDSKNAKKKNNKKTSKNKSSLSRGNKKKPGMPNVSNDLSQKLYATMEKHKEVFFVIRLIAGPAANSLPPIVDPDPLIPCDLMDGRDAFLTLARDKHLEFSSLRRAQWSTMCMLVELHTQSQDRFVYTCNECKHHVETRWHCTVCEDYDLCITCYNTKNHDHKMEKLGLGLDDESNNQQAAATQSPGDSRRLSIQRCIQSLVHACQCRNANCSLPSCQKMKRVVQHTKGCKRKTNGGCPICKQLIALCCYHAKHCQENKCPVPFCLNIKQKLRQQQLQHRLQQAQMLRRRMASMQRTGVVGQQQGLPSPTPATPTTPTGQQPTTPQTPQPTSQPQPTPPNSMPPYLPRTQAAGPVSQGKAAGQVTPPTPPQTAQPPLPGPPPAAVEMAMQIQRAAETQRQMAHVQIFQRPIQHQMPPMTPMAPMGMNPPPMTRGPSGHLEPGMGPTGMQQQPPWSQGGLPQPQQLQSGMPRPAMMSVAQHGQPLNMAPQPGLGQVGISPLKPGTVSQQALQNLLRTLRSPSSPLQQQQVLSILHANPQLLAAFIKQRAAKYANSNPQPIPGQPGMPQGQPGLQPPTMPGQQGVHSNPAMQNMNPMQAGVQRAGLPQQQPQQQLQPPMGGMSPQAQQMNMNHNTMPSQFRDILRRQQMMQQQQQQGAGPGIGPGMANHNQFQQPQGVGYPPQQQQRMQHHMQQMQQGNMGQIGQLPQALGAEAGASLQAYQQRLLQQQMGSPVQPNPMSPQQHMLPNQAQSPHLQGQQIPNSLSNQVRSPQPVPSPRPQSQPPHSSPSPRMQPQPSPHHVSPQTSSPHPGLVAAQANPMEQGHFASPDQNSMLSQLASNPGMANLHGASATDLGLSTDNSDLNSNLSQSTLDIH
Nature of the test: P300 degradation, HiBit technology in A549 P300 HiBit cells (2 h). The format is cell-based. The settings on record: 2 hrs post treatment; for Dmax: A549, A549 P300 HiBit cells; for DC50: A549 P300 HiBit cells. In outline: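 A549 HiBiT knock-in cells seeded overnight at 37 °C, 5% CO2 in F-12K with 10% heat-inactivated FBS, then given serial dilutions of compound from 10 mM DMSO stocks. Lytic HiBiT detection reagent added for 10 min at room temperature; luminescence read. Potency and Dmax reported.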

Some results are limits rather than exact numbers.

T1 sequence (Q92793 whole entry): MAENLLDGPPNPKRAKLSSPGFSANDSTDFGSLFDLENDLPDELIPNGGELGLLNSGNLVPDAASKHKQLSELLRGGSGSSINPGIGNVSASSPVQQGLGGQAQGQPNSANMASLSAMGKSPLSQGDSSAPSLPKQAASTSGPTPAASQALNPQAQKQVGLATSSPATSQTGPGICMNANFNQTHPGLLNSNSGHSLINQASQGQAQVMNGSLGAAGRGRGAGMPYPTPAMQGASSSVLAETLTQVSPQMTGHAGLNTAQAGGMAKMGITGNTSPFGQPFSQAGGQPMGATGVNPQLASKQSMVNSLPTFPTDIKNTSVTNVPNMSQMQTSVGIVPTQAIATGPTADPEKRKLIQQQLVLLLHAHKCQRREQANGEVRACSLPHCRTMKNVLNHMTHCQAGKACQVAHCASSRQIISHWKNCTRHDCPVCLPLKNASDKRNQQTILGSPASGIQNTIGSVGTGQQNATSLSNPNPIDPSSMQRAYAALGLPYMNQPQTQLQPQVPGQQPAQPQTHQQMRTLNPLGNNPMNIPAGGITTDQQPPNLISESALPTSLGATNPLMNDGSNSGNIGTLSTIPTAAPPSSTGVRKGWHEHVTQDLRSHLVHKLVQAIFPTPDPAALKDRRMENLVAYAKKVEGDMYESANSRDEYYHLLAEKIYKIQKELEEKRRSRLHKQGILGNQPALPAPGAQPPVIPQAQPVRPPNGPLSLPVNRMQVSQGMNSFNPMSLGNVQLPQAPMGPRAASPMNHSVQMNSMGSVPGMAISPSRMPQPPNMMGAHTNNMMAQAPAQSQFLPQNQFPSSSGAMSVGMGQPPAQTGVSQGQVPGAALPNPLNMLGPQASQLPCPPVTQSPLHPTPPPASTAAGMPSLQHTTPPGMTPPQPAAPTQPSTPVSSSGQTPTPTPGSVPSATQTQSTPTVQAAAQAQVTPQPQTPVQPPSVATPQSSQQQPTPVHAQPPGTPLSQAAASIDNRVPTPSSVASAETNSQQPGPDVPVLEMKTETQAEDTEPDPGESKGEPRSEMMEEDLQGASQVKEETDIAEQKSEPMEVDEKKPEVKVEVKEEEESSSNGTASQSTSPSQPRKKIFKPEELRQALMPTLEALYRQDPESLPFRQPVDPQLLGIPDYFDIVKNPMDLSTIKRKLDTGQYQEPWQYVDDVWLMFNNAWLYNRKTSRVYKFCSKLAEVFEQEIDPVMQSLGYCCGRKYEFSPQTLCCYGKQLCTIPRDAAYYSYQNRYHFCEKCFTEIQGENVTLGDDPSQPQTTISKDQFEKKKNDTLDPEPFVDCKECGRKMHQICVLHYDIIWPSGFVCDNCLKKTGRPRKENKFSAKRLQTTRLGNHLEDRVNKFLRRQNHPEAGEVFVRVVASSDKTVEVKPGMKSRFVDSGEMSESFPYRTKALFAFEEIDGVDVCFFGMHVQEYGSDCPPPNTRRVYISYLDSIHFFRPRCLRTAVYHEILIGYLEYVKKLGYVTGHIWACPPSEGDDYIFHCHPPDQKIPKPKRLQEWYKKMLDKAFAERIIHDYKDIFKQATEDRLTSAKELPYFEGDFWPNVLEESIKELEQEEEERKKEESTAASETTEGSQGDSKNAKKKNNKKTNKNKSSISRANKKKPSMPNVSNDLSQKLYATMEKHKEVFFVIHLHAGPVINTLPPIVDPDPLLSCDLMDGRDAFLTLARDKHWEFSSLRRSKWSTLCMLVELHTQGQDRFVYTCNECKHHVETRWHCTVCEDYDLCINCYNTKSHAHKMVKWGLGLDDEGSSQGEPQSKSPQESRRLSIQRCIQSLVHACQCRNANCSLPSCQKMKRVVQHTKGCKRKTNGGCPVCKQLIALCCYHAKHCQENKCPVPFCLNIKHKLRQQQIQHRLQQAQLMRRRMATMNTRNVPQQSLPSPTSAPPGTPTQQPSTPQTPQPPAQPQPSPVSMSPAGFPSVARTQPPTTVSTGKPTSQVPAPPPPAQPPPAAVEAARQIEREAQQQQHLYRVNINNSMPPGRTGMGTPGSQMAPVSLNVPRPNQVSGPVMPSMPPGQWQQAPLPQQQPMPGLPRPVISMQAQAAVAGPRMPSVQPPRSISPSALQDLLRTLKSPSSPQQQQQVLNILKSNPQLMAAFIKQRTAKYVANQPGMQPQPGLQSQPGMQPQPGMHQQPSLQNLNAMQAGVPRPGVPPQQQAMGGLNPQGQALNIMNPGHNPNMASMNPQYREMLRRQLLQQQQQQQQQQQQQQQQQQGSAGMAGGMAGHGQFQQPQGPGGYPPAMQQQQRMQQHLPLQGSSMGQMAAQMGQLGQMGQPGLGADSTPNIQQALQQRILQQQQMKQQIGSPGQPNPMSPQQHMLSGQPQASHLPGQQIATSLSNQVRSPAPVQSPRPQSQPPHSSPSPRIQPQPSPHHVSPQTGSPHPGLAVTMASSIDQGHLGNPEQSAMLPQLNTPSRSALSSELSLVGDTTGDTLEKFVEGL

As for `Cn1c(=O)n(C)c2cc(-c3cccc4cc(-c5ccc(C(=O)NCC#Cc6cc7c([C@H]8CCC(=O)NC8=O)cccc7o6)nc5)ncc34)ccc21` [Example A170, (R)-5-(8-(1,3-dimethyl-2-oxo-2,3-dihydro-1H-benzo[d]imidazol-5-yl)isoquinolin-3-yl)-N-(3-(4-(2,6-dioxo-piperidin-3-yl)benzofuran-2-yl)prop-2-yn-1-yl)picolinamide], on CBP, the DC50 (commonly the concentration giving 50% degradation) was more than 1000 nM and the Dmax (as a rule, the largest share of the target that was removed) was less than 20%. In addition, on p300, the Dmax was more than 80% and the DC50 is less than 1 nM.

On CBP, `Cc1cc(-c2cc3cccc(-c4cc(C(C)C)c5c(c4)n(C)c(=O)n5C)c3cn2)cnc1C(=O)NCC#Cc1ccc2occ(C3CCC(=O)NC3=O)c2c1` (stereo not shown) [Example A35, N-(3-(3-(2,6-Dioxopiperidin-3-yl)benzofuran-5-yl)prop-2-yn-1-yl)-5-(8-(7-isopropyl-1,3-dimethyl-2-oxo-2,3-dihydro-1H-benzo[d]imidazol-5-yl)isoquinolin-3-yl)-3-methylpicolinamide] showed a DC50 of 10 to 99 nM and a Dmax of 20 to 39%.

On CBP, `CC(C)c1cc(-c2cccc3cc(-c4ccc(C(=O)NCC#Cc5ccc6c(c5)n(C)c(=O)n6C5CCC(=O)NC5=O)nc4)ncc23)cc2c1n(C)c(=O)n2C` (stereo not shown) [Example A36, N-(3-(1-(2,6-Dioxopiperidin-3-yl)-3-methyl-2-oxo-2,3-dihydro-1H-benzo[d]imidazol-5-yl)prop-2-yn-1-yl)-5-(8-(7-isopropyl-1,3-dimethyl-2-oxo-2,3-dihydro-1H-benzo[d]imidazol-5-yl)isoquinolin-3-yl)picolinamide] came in with a DC50 of more than 1000 nM and a maximal degradation (Dmax) of less than 20%.

`Cc1cc2c(N3CCCc4nc(-c5ccc(C(=O)NCC#Cc6ccc7occ(C8(C)CCC(=O)NC8=O)c7c6)nc5)ncc43)cc(C3CCOCC3)cc2n(C)c1=O` (stereo not shown) [Example B85, 5-(5-(1,3-dimethyl-2-oxo-7-(tetrahydro-2H-pyran-4-yl)-1,2-dihydroquinolin-5-yl)-5,6,7,8-tetrahydropyrido[3,2-d]pyrimidin-2-yl)-N-(3-(3-(3-methyl-2,6-dioxopiperidin-3-yl)benzofuran-5-yl)prop-2-yn-1-yl)picolinamide]: at p300, the Dmax is less than 20% and the DC50 was more than 1000 nM.

At p300, `CC(C)c1cc(N2CCCc3cc(-c4ccc(C(=O)NCC#Cc5ccc6occ(C7CCC(=O)NC7=O)c6c5)nc4)c(F)cc32)cc2c1n(C)c(=O)n2C` (stereo not shown) [Example A117, N-(3-(3-(2,6-dioxo-piperidin-3-yl)benzofuran-5-yl)prop-2-yn-1-yl)-5-(7-fluoro-1-(7-isopropyl-1,3-dimethyl-2-oxo-2,3-dihydro-1H-benzo [d]imidazol-5-yl)-1,2,3,4-tetrahydro-quinolin-6-yl)picolinamide] yielded a maximal degradation (Dmax) of more than 80% and a half-maximal degradation concentration (DC50) of 1 to 9.9 nM.

For the molecule `CCc1cc2c(cc(C)c(=O)n2C)c(-c2cccc3cc(-c4ccc(C(=O)NCC#Cc5ccc6occ(C7CCC(=O)NC7=O)c6c5)nc4)ncc23)n1` (stereo not shown) [Example B93, N-(3-(3-(2,6-dioxopiperidin-3-yl)benzofuran-5-yl)prop-2-yn-1-yl)-5-(8-(7-ethyl-1,3-dimethyl-2-oxo-1,2-dihydro-1,6-naphthyridin-5-yl)isoquinolin-3-yl)picolinamide], on p300, the Dmax lay in the range of 60 to 79% and the DC50 lay within 1 to 9.9 nM.

For `CC(C)c1cc(N2CCC(F)(F)c3cc(-c4ccc(C(=O)NCC#Cc5ccc6occ(C7CCC(=O)NC7=O)c6c5)nc4)ccc32)cc2c1n(C)c(=O)n2C` (stereo not shown) [Example A142, 5-(4,4-difluoro-1-(7-isopropyl-1,3-dimethyl-2-oxo-2,3-dihydro-1H-benzo[d]imidazol-5-yl)-1,2,3,4-tetrahydroquinolin-6-yl)-N-(3-(3-(2,6-dioxopiperidin-3-yl)benzofuran-5-yl)prop-2-yn-1-yl)picolinamide], at p300, the greatest degradation seen (Dmax) is more than 80% and the 50% degradation concentration (DC50) was in the range of 10 to 99 nM.

Regarding `CC(C)c1nc(N2CCCc3nc(-c4ccc(C(=O)NCC#Cc5ccc6occ(C7CCC(=O)NC7=O)c6c5)nc4)ncc32)cc2c1n(C)c(=O)n2C` (stereo not shown) [Example A76, N-(3-(3-(2,6-dioxopiperidin-3-yl)benzofuran-5-yl)prop-2-yn-1-yl)-5-(5-(4-isopropyl-1,3-dimethyl-2-oxo-2,3-dihydro-1H-imidazo[4,5-c]pyridin-6-yl)-5,6,7,8-tetrahydropyrido[3,2-d]pyrimidin-2-yl)picolinamide], at p300, the maximal degradation (Dmax) was less than 20% and the 50% degradation concentration (DC50) was more than 1000 nM.

Turning to `Cn1c(=O)n(C)c2c(C3CCS(=O)(=O)CC3)nc(-c3cccc4cc(-c5ccc(C(=O)NCC#Cc6ccc7occ(C8CCC(=O)NC8=O)c7c6)nc5)ncc34)cc21` (stereo not shown) [Example A123, 5-(8-(4-(1,1-dioxido-tetrahydro-2H-thiopyran-4-yl)-1,3-dimethyl-2-oxo-2,3-dihydro-1H-imidazo [4,5-c]pyridin-6-yl)isoquinolin-3-yl)-N-(3-(3-(2,6-dioxopiperidin-3-yl)benzofuran-5-yl)prop-2-yn-1-yl)picolinamide], on p300, the greatest degradation seen (Dmax) is 60 to 79% and the DC50 was 1 to 9.9 nM.

On to `Cc1cc2c(N3CCCc4nc(-c5ccc(C(=O)NCC#Cc6ccc7c(c6)N(C6CCC(=O)NC6=O)CCCC7)nc5)ncc43)cc(C3CCOCC3)cc2n(C)c1=O` (stereo not shown) [Example B57, 5-(5-(1,3-dimethyl-2-oxo-7-(tetrahydro-2H-pyran-4-yl)-1,2-dihydroquinolin-5-yl)-5,6,7,8-tetrahydropyrido[3,2-d]pyrimidin-2-yl)-N-(3-(1-(2,6-dioxopiperidin-3-yl)-2,3,4,5-tetrahydro-1H-benzo[b]azepin-8-yl)prop-2-yn-1-yl) picolinamide], for which, on p300, the maximal degradation (Dmax) is less than 20% and the DC50 was more than 1000 nM.

On p300, `Cc1cc2c(N3CCCc4nc(-c5ccc(C(=O)NCC#Cc6ccc7occ(C8CCC(=O)NC8=O)c7c6)nc5)ncc43)cc(C3CCN(C(=O)C4CCOCC4)CC3)cc2n(C)c1=O` (stereo not shown) [Example B150, 5-(5-(1,3-dimethyl-2-oxo-7-(1-(tetrahydro-2H-pyran-4-carbonyl)piperidin-4-yl)-1,2-dihydro-quinolin-5-yl)-5,6,7,8-tetrahydropyrido[3,2-d]pyrimidin-2-yl)-N-(3-(3-(2,6-dioxopiperidin-3-yl)benzofuran-5-yl)prop-2-yn-1-yl) picolinamide] yielded a maximal degradation (Dmax) of 60 to 79% and a 50% degradation concentration (DC50) of 1 to 9.9 nM.

On p300, `Cc1cc(-c2cc(F)c(Nc3cc(C4CCOCC4)c4c(c3)n(C)c(=O)n4C)cc2C(F)(F)F)cnc1C(=O)NCC#Cc1cc2c(C3CCC(=O)NC3=O)cccc2o1` (stereo not shown) [Example A244, 5-(4-((1,3-dimethyl-2-oxo-7-(tetrahydro-2H-pyran-4-yl)-2,3-dihydro-1H-benzo[d]imidazol-5-yl)amino)-5-fluoro-2-(trifluoromethyl)phenyl)-N-(3-(4-(2,6-dioxopiperidin-3-yl)benzofuran-2-yl)prop-2-yn-1-yl)-3-methylpicolinamide] displayed a Dmax of 40 to 59% and a half-maximal degradation concentration (DC50) of 10 to 99 nM.

At p300, `Cc1cc(-c2ncc(N(C)c3cc(C(C)C)c4c(c3)n(C)c(=O)n4C)cc2C#N)cnc1C(=O)NCC#Cc1ccc2occ(C3CCC(=O)NC3=O)c2c1` (stereo not shown) [Example A98, 3-cyano-N-(3-(3-(2,6-dioxopiperidin-3-yl)benzofuran-5-yl)prop-2-yn-1-yl)-5-((7-isopropyl-1,3-dimethyl-2-oxo-2,3-dihydro-1H-benzo[d]imidazol-5-yl)(methyl)amino)-5′-methyl-[2,3′-bipyridine]-6′-carboxamide] showed a Dmax of more than 80% and a DC50 of 1 to 9.9 nM.

On p300, `Cn1c(=O)n(C)c2c(N3CCC3)nc(-c3cccc4cc(-c5ccc(C(=O)NCC#Cc6cc7c(C8CCC(=O)NC8=O)cccc7o6)nc5)ncc34)cc21` (stereo not shown) [Example A205, 5-(8-(4-(azetidin-1-yl)-1,3-dimethyl-2-oxo-2,3-dihydro-1H-imidazo[4,5-c]pyridin-6-yl)iso-quinolin-3-yl)-N-(3-(4-(2,6-dioxopiperidin-3-yl)benzofuran-2-yl)prop-2-yn-1-yl)picolinamide] returned a maximal degradation (Dmax) of more than 80% and a 50% degradation concentration (DC50) of 1 to 9.9 nM.

As for `CCc1cc(-c2cccc3cc(-c4ccc(C(=O)NCC#Cc5ccc6cnn(C7CCC(=O)NC7=O)c6c5)nc4)ncc23)c2c(n1)N(C)C(=O)N(C)C2` (stereo not shown) [Example B13, N-(3-(1-(2,6-Dioxopiperidin-3-yl)-1H-indazol-6-yl)prop-2-yn-1-yl)-5-(8-(7-ethyl-1,3-dimethyl-2-oxo-1,2,3,4-tetrahydropyrido[2,3-d]pyrimidin-5-yl)isoquinolin-3-yl)picolinamide], on p300, the Dmax was more than 80% and the half-maximal degradation concentration (DC50) lay within 1 to 9.9 nM.

On p300, `Cc1cc(-c2ncc3c(n2)CCCN3c2nc(N3CCOCC3)cc3c2cc(C)c(=O)n3C)cnc1C(=O)NCC#Cc1cc2c(C3CCC(=O)NC3=O)cccc2o1` (stereo not shown) [Example B89, 5-(5-(1,3-dimethyl-7-morpholino-2-oxo-1,2-dihydro-1,6-naphthyridin-5-yl)-5,6,7,8-tetrahydropyrido[3,2-d]pyrimidin-2-yl)-N-(3-(4-(2,6-dioxopiperidin-3-yl)benzofuran-2-yl)prop-2-yn-1-yl)-3-methylpicolinamide] registered a Dmax of more than 80% and a DC50 of 1 to 9.9 nM.
